Measured values: ChEMBL document CHEMBL3885861, “Open TG-GATES”

Species on record: Rattus norvegicus
Experiment: Open TG-GATES - Regimen: Daily Repeat
Type: toxicity, organism-based, Sprague-Dawley
Design: regimen Daily Repeat, gender Male, age 6 weeks
Settings: in vivo, po, route gavage; for APTT / Bas / Eos / Fbg / Hb / Ht / Lym / MCH / MCHC / MCV / Mono / Neu / PT / Plat / RBC / Ret / WBC: tissue Blood; for KIDNEY_L / KIDNEY_R / KIDNEY_TOTAL: tissue Kidney; for LIVER: tissue Liver; for A/G / ALP / ALT / AST / BUN / CRE / Ca / Cl / DBIL / GLC / IP / K / LDH / Na / PL / RALB / TBIL / TC / TG / TP / gamma-GTP: tissue Plasma
[1] = 10 mg/kg, 72 h, dose level Middle, time 3 day
[2] = 10 mg/kg, […], dose level Middle, time 7 day
[3] = 10 mg/kg, […], dose level Middle, time 14 day
[4] = 10 mg/kg, […], dose level Middle, time 28 day
[5] = 30 mg/kg, 72 h, dose level High, time 3 day
[6] = 30 mg/kg, […], dose level High, time 7 day
[7] = 30 mg/kg, […], dose level High, time 14 day
[8] = 30 mg/kg, […], dose level High, time 28 day

CN(C)CCC(c1ccc(Cl)cc1)c1ccccn1 (centres undefined) [CHLORPHENIRAMINE]
TERMINAL_BW [1]: 226.7 g
APTT [1]: 18.1 s
Bas [1]: 0%
Eos [1]: 1.2%
Fbg [1]: 297.4 mg/dL
Hb [1]: 13.1 g/dL
Ht [1]: 40.4%
Lym [1]: 77.4%
MCH [1]: 20.7 pg
MCHC [1]: 32.3%
MCV [1]: 63.9 fL
Mono [1]: 2.6%
Neu [1]: 18.6%
PT [1]: 14.8 s
Plat [1]: 123.1 x10_4/uL
RBC [1]: 631.8 x10_4/ul
Ret [1]: 6.1%
WBC [1]: 88.3 x10_2/uL
KIDNEY_L [1]: 1 g
KIDNEY_R [1]: 0.9 g
KIDNEY_TOTAL [1]: 1.9 g
LIVER [1]: 10.2 g
A/G [1]: 0.9
ALP [1]: 1653.8 IU/L
ALT [1]: 38.8 IU/L
AST [1]: 67.8 IU/L
BUN [1]: 14.4 mg/dL
CRE [1]: 0.2 mg/dL
Ca [1]: 10.4 mg/dL
Cl [1]: 107.2 meq/L
DBIL [1]: 0.016 mg/dL
GLC [1]: 184.6 mg/dL
IP [1]: 7.4 mg/dL
K [1]: 4.5 meq/L
LDH [1]: 94.6 IU/L
Na [1]: 141.6 meq/L
PL [1]: 147.8 mg/dL
RALB [1]: 2.6 g/dL
TBIL [1]: 0.038 mg/dL
TC [1]: 82 mg/dL
TG [1]: 76.2 mg/dL
TP [1]: 5.6 g/dL
gamma-GTP [1]: 1.4 IU/L
TERMINAL_BW [2]: 266.4 g
TERMINAL_BW [3]: 329 g
TERMINAL_BW [4]: 411.3 g
APTT [2]: 22.1 s
Bas [2]: 0%
Eos [2]: 0.8%
Fbg [2]: 297.2 mg/dL
Hb [2]: 13.6 g/dL
Ht [2]: 41%
Lym [2]: 77%
MCH [2]: 20.8 pg
MCHC [2]: 33%
MCV [2]: 63.1 fL
Mono [2]: 2.2%
Neu [2]: 19.2%
PT [2]: 14.1 s
Plat [2]: 110 x10_4/uL
RBC [2]: 650.4 x10_4/ul
Ret [2]: 5.7%
WBC [2]: 82.7 x10_2/uL
APTT [3]: 16.1 s
Bas [3]: 0.2%
Eos [3]: 0.4%
Fbg [3]: 365 mg/dL
Hb [3]: 14 g/dL
Ht [3]: 42.2%
Lym [3]: 73.6%
MCH [3]: 20.3 pg
MCHC [3]: 33.1%
MCV [3]: 61.3 fL
Mono [3]: 3.4%
Neu [3]: 19.8%
PT [3]: 14.4 s
Plat [3]: 118 x10_4/uL
RBC [3]: 687.8 x10_4/ul
Ret [3]: 4.6%
WBC [3]: 91.1 x10_2/uL
APTT [4]: 18.2 s
Bas [4]: 0%
Eos [4]: 1%
Fbg [4]: 267.8 mg/dL
Hb [4]: 15.2 g/dL
Ht [4]: 45.1%
Lym [4]: 78.8%
MCH [4]: 18.9 pg
MCHC [4]: 33.8%
MCV [4]: 56 fL
Mono [4]: 2.2%
Neu [4]: 17.4%
PT [4]: 15.2 s
Plat [4]: 106.7 x10_4/uL
RBC [4]: 806.2 x10_4/ul
Ret [4]: 2.2%
WBC [4]: 92.2 x10_2/uL
KIDNEY_L [2]: 1.1 g
KIDNEY_R [2]: 1.1 g
KIDNEY_TOTAL [2]: 2.2 g
KIDNEY_L [3]: 1.3 g
KIDNEY_R [3]: 1.2 g
KIDNEY_TOTAL [3]: 2.5 g
KIDNEY_L [4]: 1.5 g
KIDNEY_R [4]: 1.4 g
KIDNEY_TOTAL [4]: 2.9 g
LIVER [2]: 12.1 g
LIVER [3]: 14.6 g
LIVER [4]: 16.2 g
A/G [2]: 0.8
ALP [2]: 1451.2 IU/L
ALT [2]: 40.6 IU/L
AST [2]: 64.4 IU/L
BUN [2]: 15.8 mg/dL
CRE [2]: 0.2 mg/dL
Ca [2]: 11.4 mg/dL
Cl [2]: 105.8 meq/L
DBIL [2]: 0.012 mg/dL
GLC [2]: 194.4 mg/dL
IP [2]: 7.6 mg/dL
K [2]: 4.2 meq/L
LDH [2]: 96.6 IU/L
Na [2]: 142.6 meq/L
PL [2]: 158.4 mg/dL
RALB [2]: 2.6 g/dL
TBIL [2]: 0.028 mg/dL
TC [2]: 84.8 mg/dL
TG [2]: 98 mg/dL
TP [2]: 5.8 g/dL
gamma-GTP [2]: 1 IU/L
A/G [3]: 0.8
ALP [3]: 1493.6 IU/L
ALT [3]: 41.6 IU/L
AST [3]: 64 IU/L
BUN [3]: 15.8 mg/dL
CRE [3]: 0.2 mg/dL
Ca [3]: 11.2 mg/dL
Cl [3]: 105.4 meq/L
DBIL [3]: 0.016 mg/dL
GLC [3]: 199.6 mg/dL
IP [3]: 7.8 mg/dL
K [3]: 4 meq/L
LDH [3]: 103 IU/L
Na [3]: 144 meq/L
PL [3]: 152.2 mg/dL
RALB [3]: 2.8 g/dL
TBIL [3]: 0.034 mg/dL
TC [3]: 78.2 mg/dL
TG [3]: 116.2 mg/dL
TP [3]: 6 g/dL
gamma-GTP [3]: 1 IU/L
A/G [4]: 0.8
ALP [4]: 1476.8 IU/L
ALT [4]: 39 IU/L
AST [4]: 67 IU/L
BUN [4]: 16.8 mg/dL
CRE [4]: 0.2 mg/dL
Ca [4]: 10.5 mg/dL
Cl [4]: 107.2 meq/L
DBIL [4]: 0.016 mg/dL
GLC [4]: 193.4 mg/dL
IP [4]: 6.2 mg/dL
K [4]: 4.1 meq/L
LDH [4]: 87.2 IU/L
Na [4]: 144.2 meq/L
PL [4]: 141 mg/dL
RALB [4]: 2.7 g/dL
TBIL [4]: 0.03 mg/dL
TC [4]: 65.6 mg/dL
TG [4]: 136.6 mg/dL
TP [4]: 6 g/dL
gamma-GTP [4]: 1 IU/L
TERMINAL_BW [5]: 205.8 g
APTT [5]: 18.2 s
Bas [5]: 0.4%
Eos [5]: 1%
Fbg [5]: 272.2 mg/dL
Hb [5]: 14.3 g/dL
Ht [5]: 43.8%
Lym [5]: 78.6%
MCH [5]: 20.4 pg
MCHC [5]: 32.5%
MCV [5]: 62.5 fL
Mono [5]: 3.2%
Neu [5]: 15.8%
PT [5]: 15.3 s
Plat [5]: 124 x10_4/uL
RBC [5]: 701 x10_4/ul
Ret [5]: 3.4%
WBC [5]: 91.9 x10_2/uL
KIDNEY_L [5]: 1 g
KIDNEY_R [5]: 0.9 g
KIDNEY_TOTAL [5]: 1.9 g
LIVER [5]: 8.8 g
A/G [5]: 0.9
ALP [5]: 1539.6 IU/L
ALT [5]: 38 IU/L
AST [5]: 67.2 IU/L
BUN [5]: 14.8 mg/dL
CRE [5]: 0.2 mg/dL
Ca [5]: 10.3 mg/dL
Cl [5]: 108.8 meq/L
DBIL [5]: 0.012 mg/dL
GLC [5]: 182.6 mg/dL
IP [5]: 7.5 mg/dL
K [5]: 4.5 meq/L
LDH [5]: 95.6 IU/L
Na [5]: 142.2 meq/L
PL [5]: 133 mg/dL
RALB [5]: 2.6 g/dL
TBIL [5]: 0.038 mg/dL
TC [5]: 74.6 mg/dL
TG [5]: 62.6 mg/dL
TP [5]: 5.5 g/dL
gamma-GTP [5]: 1.2 IU/L
TERMINAL_BW [6]: 242.7 g
TERMINAL_BW [7]: 294.5 g
TERMINAL_BW [8]: 368.6 g
APTT [6]: 19.1 s
Bas [6]: 0.4%
Eos [6]: 1%
Fbg [6]: 302.6 mg/dL
Hb [6]: 13.6 g/dL
Ht [6]: 40.9%
Lym [6]: 74%
MCH [6]: 20.5 pg
MCHC [6]: 33.3%
MCV [6]: 61.4 fL
Mono [6]: 3.2%
Neu [6]: 21.2%
PT [6]: 13.9 s
Plat [6]: 119 x10_4/uL
RBC [6]: 665.2 x10_4/ul
Ret [6]: 3.6%
WBC [6]: 121.3 x10_2/uL
APTT [7]: 17.1 s
Bas [7]: 0.2%
Eos [7]: 0.8%
Fbg [7]: 282 mg/dL
Hb [7]: 14.1 g/dL
Ht [7]: 42.4%
Lym [7]: 79.2%
MCH [7]: 19.9 pg
MCHC [7]: 33.4%
MCV [7]: 59.7 fL
Mono [7]: 2.6%
Neu [7]: 16.4%
PT [7]: 14.3 s
Plat [7]: 113.7 x10_4/uL
RBC [7]: 709 x10_4/ul
Ret [7]: 4.6%
WBC [7]: 93.8 x10_2/uL
APTT [8]: 20.7 s
Bas [8]: 0%
Eos [8]: 0.8%
Fbg [8]: 290.6 mg/dL
Hb [8]: 15.8 g/dL
Ht [8]: 46.8%
Lym [8]: 80.6%
MCH [8]: 19 pg
MCHC [8]: 33.8%
MCV [8]: 56.2 fL
Mono [8]: 2.6%
Neu [8]: 14.8%
PT [8]: 15.1 s
Plat [8]: 110.6 x10_4/uL
RBC [8]: 834 x10_4/ul
Ret [8]: 2.2%
WBC [8]: 98.8 x10_2/uL
KIDNEY_L [6]: 1 g
KIDNEY_R [6]: 1 g
KIDNEY_TOTAL [6]: 2 g
KIDNEY_L [7]: 1.1 g
KIDNEY_R [7]: 1.1 g
KIDNEY_TOTAL [7]: 2.3 g
KIDNEY_L [8]: 1.5 g
KIDNEY_R [8]: 1.4 g
KIDNEY_TOTAL [8]: 2.9 g
LIVER [6]: 10.9 g
LIVER [7]: 12.6 g
LIVER [8]: 15.6 g
A/G [6]: 0.8
ALP [6]: 1512.4 IU/L
ALT [6]: 40.6 IU/L
AST [6]: 65 IU/L
BUN [6]: 16 mg/dL
CRE [6]: 0.2 mg/dL
Ca [6]: 11.3 mg/dL
Cl [6]: 106.2 meq/L
DBIL [6]: 0.012 mg/dL
GLC [6]: 185.6 mg/dL
IP [6]: 7.6 mg/dL
K [6]: 4.4 meq/L
LDH [6]: 112.2 IU/L
Na [6]: 141.6 meq/L
PL [6]: 163.6 mg/dL
RALB [6]: 2.6 g/dL
TBIL [6]: 0.028 mg/dL
TC [6]: 86.4 mg/dL
TG [6]: 117 mg/dL
TP [6]: 5.8 g/dL
gamma-GTP [6]: 1 IU/L
A/G [7]: 0.8
ALP [7]: 1415.4 IU/L
ALT [7]: 32.8 IU/L
AST [7]: 57.8 IU/L
BUN [7]: 15.4 mg/dL
CRE [7]: 0.2 mg/dL
Ca [7]: 11.1 mg/dL
Cl [7]: 105.8 meq/L
DBIL [7]: 0.012 mg/dL
GLC [7]: 190.6 mg/dL
IP [7]: 7.6 mg/dL
K [7]: 4.6 meq/L
LDH [7]: 122.4 IU/L
Na [7]: 141.8 meq/L
PL [7]: 155.8 mg/dL
RALB [7]: 2.8 g/dL
TBIL [7]: 0.03 mg/dL
TC [7]: 82.4 mg/dL
TG [7]: 121 mg/dL
TP [7]: 6 g/dL
gamma-GTP [7]: 1 IU/L
A/G [8]: 0.8
ALP [8]: 1092.6 IU/L
ALT [8]: 34 IU/L
AST [8]: 54.6 IU/L
BUN [8]: 16 mg/dL
CRE [8]: 0.2 mg/dL
Ca [8]: 10.7 mg/dL
Cl [8]: 105.6 meq/L
DBIL [8]: 0.014 mg/dL
GLC [8]: 184 mg/dL
IP [8]: 7.1 mg/dL
K [8]: 4.4 meq/L
LDH [8]: 92.8 IU/L
Na [8]: 144.2 meq/L
PL [8]: 150.2 mg/dL
RALB [8]: 2.8 g/dL
TBIL [8]: 0.03 mg/dL
TC [8]: 75.2 mg/dL
TG [8]: 148 mg/dL
TP [8]: 6.2 g/dL
gamma-GTP [8]: 1.2 IU/L
